How the values were obtained:
human mGluR5d = molecular target: T1, human mGluR5d (Homo sapiens, UniProt P41594); experiment: FLIPR assay: functional assessment of mGluR5 antagonism (intracellular calcium mobilization); assay type: cell-based; conditions: cells expressing human mGluR5d; read-out: FLIPR hmGluR5d
T1 construct: expressed in transfected cells
Text: The properties of the compounds of the invention can be analyzed using standard assays for pharmacological activity. Examples of glutamate receptor assays are well known in the art as described in for example Aramori et al., Neuron 8:757 (1992), Tanabe et al., Neuron 8:169 (1992), Miller et al., J. Neuroscience 15:6103 (1995), Balazs, et al., J. Neurochemistry 69:151 (1997). The methodology described in these publications is incorporated herein by reference. Conveniently, the compounds of the invention can be studied by means of an assay (FLIPR) that measures the mobilization of intracellular calcium, [Ca^2+]i in cells expressing mGluR5 or another assay (IP3) that measures inositol phosphate turnover.
Cells expressing human mGluR5d as described in WO97/05252 are seeded at a density of 100,000 cells per well on collagen coated clear bottom 96-well plates with black sides and experiments are done 24 h following seeding. […] The fluorescence signal is sampled 50 times at 1 second intervals followed by 3 samples at 5 second intervals immediately after each of the two additions. Responses are measured as the difference between the peak height of the response to agonist, less the background fluorescence within the sample period. […]

[1] = Determination of brain to plasma ratio in rat; assay type: in vivo; conditions: brain and plasma, female Sprague Dawley rats, read-out: Brain/Plasma Ratio of compound in Rat
Protocol: Brain to plasma ratios are estimated in female Sprague Dawley rats. The compound is dissolved in water or another appropriate vehicle. For determination of brain to plasma ratio the compound is administrated as a subcutaneous, or an intravenous bolus injection, or an intravenous infusion, or an oral administration. At a predetermined time point after the administration a blood sample is taken with cardiac puncture. The rat is terminated by cutting the heart open, and the brain is immediately retained. The blood samples are collected in heparinized tubes and centrifuged within 30 minutes, in order to separate the plasma from the blood cells. The plasma is transferred to 96-well plates and stored at −20° C. until analysis. The brains are divided in half, and each half is placed in a pre-tarred tube and stored at −20° C. until analysis. Prior to the analysis, the brain samples are thawed and 3 ml/g brain tissue of distilled water is added to the tubes. The brain samples are sonicated in an ice bath until the samples are homogenized. Both brain and plasma samples are precipitated with acetonitrile. After centrifugation, the supernatant is diluted with 0.2% formic acid. […] After reconstitution of the residuals the samples are ready for injection onto the HPLC column.

T1 sequence (P41594 21-942 isoform P41594-3 limits assumed): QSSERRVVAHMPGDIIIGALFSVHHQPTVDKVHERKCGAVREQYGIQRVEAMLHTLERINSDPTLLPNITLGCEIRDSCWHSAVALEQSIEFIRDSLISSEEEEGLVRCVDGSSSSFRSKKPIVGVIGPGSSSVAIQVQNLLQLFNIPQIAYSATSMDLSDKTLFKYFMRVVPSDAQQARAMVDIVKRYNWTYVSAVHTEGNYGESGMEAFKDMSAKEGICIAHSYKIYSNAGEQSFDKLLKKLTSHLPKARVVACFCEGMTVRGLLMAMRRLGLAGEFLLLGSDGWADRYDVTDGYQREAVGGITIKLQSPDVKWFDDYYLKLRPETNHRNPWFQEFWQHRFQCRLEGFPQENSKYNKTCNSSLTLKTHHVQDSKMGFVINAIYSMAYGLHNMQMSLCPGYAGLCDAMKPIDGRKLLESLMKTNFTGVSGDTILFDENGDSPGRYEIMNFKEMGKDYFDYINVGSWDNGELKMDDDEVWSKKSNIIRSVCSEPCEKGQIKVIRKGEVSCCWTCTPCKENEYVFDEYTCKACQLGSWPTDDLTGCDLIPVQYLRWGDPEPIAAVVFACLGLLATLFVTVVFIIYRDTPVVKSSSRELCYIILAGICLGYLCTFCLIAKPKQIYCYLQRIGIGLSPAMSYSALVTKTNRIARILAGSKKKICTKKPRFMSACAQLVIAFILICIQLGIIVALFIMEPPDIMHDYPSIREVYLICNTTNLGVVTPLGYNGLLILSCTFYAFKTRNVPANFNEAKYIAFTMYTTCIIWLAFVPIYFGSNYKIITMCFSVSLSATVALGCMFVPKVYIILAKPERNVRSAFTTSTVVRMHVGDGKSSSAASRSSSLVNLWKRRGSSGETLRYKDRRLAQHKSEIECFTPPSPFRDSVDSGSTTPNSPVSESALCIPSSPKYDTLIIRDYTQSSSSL

IC50 (human mGluR5d) | Kp [1] | SMILES
50 nM | 0.13 | COc1cc(-c2nnc(N3CCC[C@@H]3c3nnn(-c4cccc(C#N)c4)n3)n2C)ccn1 [Example 15.3, 3-(5-{(R)-1-[5-(2-Methoxy-pyridin-4-yl)-4-methyl-4H-[1,2,4]triazol-3-yl]-pyrrolidin-2-yl}-tetrazol-2-yl)-benzonitrile]
11 nM | 0.27 | Cc1cc(-c2nnc(N3CCC[C@@H]3c3nnn(-c4cccc(Cl)c4)n3)n2C)ccn1 [Example 15.1, 4-(5-{(R)-2-[2-(3-Chloro-phenyl)-2H-tetrazol-5-yl]-pyrrolidin-1-yl}-4-methyl-4H-[1,2,4]triazol-3-yl)-2-methyl-pyridine]

— patent publication US20070259926A1, “mGluR5 modulators III” (AstraZeneca AB, priority 2006, published 2007)
